Experimental data published in paper PMC6444592, “Citrullination of HP1γ chromodomain affects association with chromatin” (Epigenetics & Chromatin, 2019).

Assays:
H1.2 = settings: reprogramming and ground state pluripotent stem cells; cited from earlier work
From the text: We previously identified a role for PADI4 during reprogramming and ground state pluripotent stem cells, where the deiminase regulates key pluripotency genes via a mechanism involving citrullination of H1.2. […] Here, we report that the chromodomain of HP1γ is also citrullinated in mESCs, at R38 and R39. […] Furthermore, mutations in HP1γ designed to mimic the loss of charge caused by citrullination inhibit binding ...

methylated H3K9 = settings: at gene promoters; cited from earlier work
From the text: It is possible that PADI4 targets both H3R8 and HP1γ bound to the same H3N-terminal tail. The Nanog gene may represent an important example of such a locus, since chromatin immunoprecipitation experiments have shown that both HP1γ and PADI4 bind to its promoter and regulate gene expression in stem cells.

histone H3 = assay: citrullination of histone H3 by PADI4; type: biochemical; settings: calcium, anti-H3R2-citrulline and Pan-Cit immunoblot
Procedure: For immunoblotting, cells were lysed in 2 × Laemmli buffer and sonicated in a water bath (Fisherbrand) for 3 min to shear genomic DNA, spun down at full speed in a microfuge for 15 min and incubated for 5 min at 95 °C. Proteins were resolved by SDS-PAGE, transferred to nitrocellulose membrane (Millipore) using wet transfer (transfer buffer: 192 mM glycine, 25 mM Tris.HCl pH8.8) and incubated in blocking solution (5% BSA in TBS containing 0.5% Tween-20 for citrulline sensitive antibodies and 5% non-fat milk powder in TBS containing 0.1% Tween-20 for all other antibodies) for 1 h at room temperature (RT). Membranes were incubated with primary antibody at 4 °C o/n and appropriate HRP-conjugated secondary antibody for 1 h at RT. Membranes were then incubated for enhanced chemiluminescence (ECL, Promega), and proteins were detected by exposure to X-ray film or using the ChemiDoc™ MP imaging system (Bio-Rad). Images were quantified using ImageJ analysis software. Primary antibodies diluted in blocking solution were used to detect citrullinated histone H3R2 (H3R2-Cit, Abcam ab176843 at 1:1000 dilution), HP1γ (Millipore 05-690 MAB clone 42s2 [16] at 1:1000 dilution), β-Tubulin (Abcam ab6046 at 1:1000 dilution) and peptidyl-citrulline (Millipore MABN328, clone F95 [48] at 1:1000 dilution). […]

Substance: Peptidylarginine deiminase 4 [PADI4]
- effect of H1.2 citrullination (H1.2): eviction from chromatin and global chromatin decompaction
- effect of H3R8 citrullination on HP1 binding to adjacent methylated H3K9 (methylated H3K9): reduces the binding affinity of HP1 to adjacent methylated H3K9
- enzymatic activity of recombinant PADI4 on histone H3 (histone H3): confirmed by citrullination of histone H3
